Experimental data reported in paper PMC13083723 (Patterns, 2026).

Each molecule was assayed on Vero-E6 cells (assay: cells). Details: Chlorocebus sabaeus, Vero C1008, 24 h, read-out: PL_Result.
Type: cell-based
In the case of `NCCCCCCCCCCNS(=O)(=O)c1cccc2c(Cl)cccc12` [SPE_K03301001], the activation at 10 µM is reported as 2.75%.
For `CC(C)C[C@@H](C(=O)N[C@@H](Cc1ccc(OCc2ccccc2)cc1)C(=O)NC(C)(C)C)N(C)Cc1ccc(C(C)(C)C)cc1` [SPE_K04426574], the activation at 10 µM was -3.22%.
`N=C(N)NCc1cccc(I)c1` [SPE_K43860855] was tested, and the activation at 10 µM was -5.07%.
In the case of `C=CCN1C[C@H](C(=O)N(CCCN(C)C)C(=O)NCC)C[C@@H]2c3cccc4[nH]cc(c34)C[C@H]21` [SPE_K86882815], the activation at 10 µM is reported as 9.44%.
For `NC(=O)C[C@H](N)C(=O)O` [SPE_K06665116], the activation at 10 µM was -6.33%.
In the case of `CCOC(=O)c1ncc2[nH]c3ccc(OCc4ccccc4)cc3c2c1COC` [SPE_K33882852], the activation at 10 µM is reported as -9.36%.
`O=C1N[C@@H]2[C@@H](O)[C@@H](O)[C@H](O)[C@@H](CO)N2C1=O` [SPE_K02898090] showed an activation at 10 µM of 7%.
With `CN(C)Cc1ccc(-c2nc3cccc4c3n2CCNC4=O)cc1` [SPE_K00615600] the activation at 10 µM was 6.53%.
`O=C(O)c1cc(O)c2ccccc2n1` [SPE_K85872723] was tested, and the activation at 10 µM was -13%.
`CCCCC/C=C\C/C=C\C/C=C\CCCCC(=O)O` [SPE_K18059238] was tested, and the activation at 10 µM was 1.69%.
Molecule `CCCCCCCC/C=C\CCCCCCCC(=O)NCCO` [SPE_K66956375] has an activation at 10 µM of -6.58%.
In the case of `C[C@]12CC[C@H]3[C@@H](CCC4=CC(=O)CC[C@@H]43)[C@@H]1CC[C@@H]2O` [SPE_K52080565], the activation at 10 µM is reported as -3.9%.
Work on `Cc1c(C(=O)NCc2cccnc2)nn(-c2ccc(Cl)cc2Cl)c1-c1ccc(Cl)cc1` [SPE_K71315565] yielded an activation at 10 µM of 4.2%.
With `COc1nc(C)nc(Cl)c1NC1=NCCN1` [SPE_K77771411] the activation at 10 µM was -3.03%.
`CCC[C@H](N[C@@H](C)C(=O)N1[C@H](C(=O)O)C[C@@H]2CCCC[C@@H]21)C(=O)O` [SPE_K00768353] was tested, and the activation at 10 µM was -9.94%.
`COc1cccc(NC(=O)/C=C/c2ccc(Cl)cc2)c1` [SPE_K61536336] gave an activation at 10 µM of -7.48%.
`CNCCc1c[nH]cn1` [SPE_K64422603] was tested, and the activation at 10 µM was -17.3%.
Molecule `C=CCC1(CC(C)C)C(=O)NC(=O)NC1=O` [SPE_K71350836] has an activation at 10 µM of -15.8%.
`C[C@@H](c1ccc2nccn2c1)n1nnc2ncc(-c3cnn(C)c3)nc21` [SPE_K98028353] showed an activation at 10 µM of -4.44%.
`C[C@]12CC[C@H](O)C[C@H]1CC[C@@H]1[C@@H]2C[C@@H](O)[C@]2(C)[C@@H](C3=CC(=O)OC3)CC[C@]12O` [SPE_K18619710] gave an activation at 10 µM of -13.9%.
`C[C@@H]1CN(CC(=O)Nc2ccc3c(c2)Cc2cccc(-c4cc(=O)cc(N5CCOCC5)o4)c2S3)C[C@H](C)O1` [SPE_K36016295] gave an activation at 10 µM of 15.1%.
For `C[C@H](NC(=O)/C(C#N)=C/c1cccc(Br)n1)c1ccccc1` [SPE_K05445342], the activation at 10 µM was 3.2%.
For `CCCN(CCC)S(=O)(=O)c1ccc(C(=O)O)cc1` [SPE_K95237249], the activation at 10 µM was 0.643%.
With `O=C(O)CC(S)C(=O)O` (centres unmarked) [SPE_A43435802] the activation at 10 µM was 5.6%.
Work on `CC[C@]12CCCN3CCc4c(n(c5ccccc45)C(=O)C1)[C@@H]32` [SPE_K40227168] yielded an activation at 10 µM of -8.29%.
`C[C@H]1CO[C@@H]2Cn3cc(C(=O)NCc4ccc(F)cc4F)c(=O)c(O)c3C(=O)N12` [SPE_A95114378] showed an activation at 10 µM of -1.46%.
For `COc1nccc(-c2c(-c3ccc(F)cc3)ncn2C2CCNCC2)n1` [SPE_K19412355], the activation at 10 µM was 14.6%.
With `CC(=O)OCC(=O)[C@H]1CC[C@H]2[C@@H]3CC[C@H]4C[C@H](O)CC[C@]4(C)[C@H]3C(=O)C[C@]12C` [SPE_K51751936] the activation at 10 µM was -4.71%.
`CN(C)c1ccc(C(=C2C=CC(=[N+](C)C)C=C2)c2ccc(N(C)C)cc2)cc1` [SPE_K60025295] showed an activation at 10 µM of 5.79%.
Molecule `O=C(NCc1ccc(Oc2ccccc2)cc1)c1nc(-c2cc(Br)c(O)c(Br)c2)no1` [SPE_K84892605] has an activation at 10 µM of -10.4%.
Work on `CN(C)C/C=C/C(=O)Nc1ccc(C(=O)Nc2cccc(Nc3ncc(Cl)c(-c4c[nH]c5ccccc45)n3)c2)cc1` [SPE_K66401437] yielded an activation at 10 µM of 6.67%.
In the case of `CCCCNc1cc(C(=O)O)cc(S(N)(=O)=O)c1Oc1ccccc1` [SPE_K38197229], the activation at 10 µM is reported as -2.26%.
With `CC(C)S(=O)(=O)NC[C@H](C)c1ccc(-c2ccc(CCNS(C)(=O)=O)cc2)cc1` [SPE_K42981054] the activation at 10 µM was -11.8%.
In the case of `Nc1nc(=O)[nH]cc1F` [SPE_K82143716], the activation at 10 µM is reported as -8.79%.
Molecule `CCC1(c2ncc[nH]2)Cc2ccccc2O1` (centres unmarked) [SPE_A38747044] has an activation at 10 µM of 2.93%.
`Cc1cccc(NC(=O)c2ccc(C(F)(F)F)cc2C(=O)O)n1` [SPE_K47816470] gave an activation at 10 µM of -2.17%.
With `C[C@@H](N)[C@@H](O)c1ccccc1` [SPE_K27853494] the activation at 10 µM was -4.21%.
With `NC[C@@H]1CC[C@@H](N)[C@@H](O[C@H]2[C@H](O)[C@@H](O[C@H]3O[C@H](CO)[C@@H](O)[C@H](N)[C@H]3O)[C@H](N)C[C@@H]2N)O1` [SPE_K48427910] the activation at 10 µM was -9.88%.
For `O=C(Nc1ccc(S(=O)(=O)C(F)(F)F)cc1)C1=CCN(c2ncccc2C(F)(F)F)CC1` [SPE_K87665527], the activation at 10 µM was 1.59%.
In the case of `C=C(C)CN1CC[C@]23c4c5ccc(O)c4O[C@H]2c2[nH]c4ccccc4c2C[C@@]3(O)C1C5` [SPE_A75769826], the activation at 10 µM is reported as 35%.
Molecule `COc1cc(OC)c(OC)cc1C=O` [SPE_K88219015] has an activation at 10 µM of -0.692%.
For `CCN(CC)CCOCCOC(=O)C1(c2ccccc2)CCCC1` [SPE_K06181161], the activation at 10 µM was 11.3%.
`N[C@H](CSC(c1ccccc1)(c1ccccc1)c1ccccc1)C(=O)O` [SPE_K09774593] showed an activation at 10 µM of -6.1%.
`Cc1cc(-c2nncc3c(C(C)(C)C)c(OCc4ncnn4C)nn23)no1` [SPE_K44022883] was tested, and the activation at 10 µM was -4.38%.
`Cc1cc(C)nc(NS(=O)(=O)c2ccc(NC(=S)NC(=O)COc3ccc(Br)cc3Cl)cc2)n1` [SPE_K22829793] showed an activation at 10 µM of -2.21%.
`O=C1NC(=S)NC(=O)C1C(=O)Nc1ccccc1` [SPE_K45152786] gave an activation at 10 µM of -1.42%.
With `CC1(C)O[C@@H]2CC3C4C[C@H](F)C5=CC(=O)C=CC5(C)C4C(O)CC3(C)[C@]2(C(=O)CO)O1` (some centres unmarked) [SPE_A65449987] the activation at 10 µM was 6.74%.
Work on `CCCCc1nc(C)c(CC(=S)N(C)C)c(=O)n1Cc1ccc(-c2ccccc2-c2nnn[nH]2)cc1` [SPE_K21586122] yielded an activation at 10 µM of -5.47%.
With `O=[N+]([O-])c1cncn1CCN1CCOCC1` [SPE_K79145628] the activation at 10 µM was -10.4%.
`COc1cc(O)c(C(=O)c2ccccc2)cc1S(=O)(=O)O` [SPE_K38602774] was tested, and the activation at 10 µM was -11.2%.
`Clc1ccc(C(Cn2ccnc2)OCc2c(Cl)cccc2Cl)c(Cl)c1` (centres unmarked) [SPE_A93353767] gave an activation at 10 µM of 0.354%.
`N#Cc1cccc(-c2nc(-c3cccnc3)no2)c1` [SPE_K40176866] was tested, and the activation at 10 µM was -7.54%.
`CC(O)c1cc(C(=O)N[C@@H](C)Cn2ccc(-c3ccc(C#N)c(Cl)c3)n2)n[nH]1` (some centres unmarked) [SPE_A01259528] gave an activation at 10 µM of -15.4%.
`COc1ccc(-c2coc3cc(O)cc(O)c3c2=O)cc1` [SPE_K73303757] gave an activation at 10 µM of -15.6%.
With `CCOC(=O)c1cc2ccc(O)cc2oc1=O` [SPE_K53438416] the activation at 10 µM was -0.478%.
With `O=C(O)C(=O)c1cn(Cc2ccccc2)c2ccc(-c3ccc(OC(F)(F)F)cc3)cc12` [SPE_K30882994] the activation at 10 µM was 1.29%.
In the case of `CCC(N)C(O)c1ccc(O)c(O)c1` (centres unmarked) [SPE_A68509429], the activation at 10 µM is reported as -8.71%.
Work on `C[C@]12C=CC(=O)C=C1CCC1C2[C@@H](O)C[C@@]2(C)C1CC[C@]2(O)C(=O)COC(=O)CCC(=O)O` (some centres unmarked) [SPE_A78391468] yielded an activation at 10 µM of 3.52%.
Molecule `COc1ccc2[nH]c3nnc(C)c-3c(NCCOCCO)c2c1` [SPE_K02460719] has an activation at 10 µM of -9.99%.
